Test results reported in patent US12220420B2, “Combination therapy for cancer treatment” (Galera Labs, LLC, priority 2016, dated 2025).

How the values were obtained:
[1] = system: Non-small cell lung cancer cells (H1299); assay: Clonogenic cell survival assay, auranofin alone and with ionizing radiation; type: cell-based, human
Experimental: The effects of an inhibitor of hydrogen peroxide metabolism, auranofin (a thioredoxin reductase inhibitor), on cancer cells was tested in a clonogenic cell survival assay to determine the effects of the compound alone and in combination with ionizing radiation. Non-small cell lung cancer cells (H1299) were exponentially grown and treated with auranofin (Au) either by itself for 15 minutes, or 15 minutes prior to the first of two ionizing radiation (IR) doses (2 Gy each) spaced 24 hours apart. After the last ionizing radiation dose, the cells were trypsinized, counted, replated at varying lower densities and incubated for 12 days. Plates were stained and counted for clonogenic survival assays. […] Furthermore, treatment with auranofin sensitized the cancer cells to radiation, thereby increasing the efficiency of the ionizing radiation in cell killing (Auranofin+IR) as compared to administration of ionizing radiation alone (IR 4 Gy).

HN5 (HNSCC) tumors = assay: Animal model of squamous cell carcinoma of the head and neck with or without radiation; type: in vivo
Experimental: The effect of GC4419 was tested in vivo on animal models of squamous cell carcinoma of the head and neck (HNSCC). GC4419 was delivered as a 24 mg/kg daily dose delivered as an ip bolus on 5 consecutive days starting 1 hour prior to irradiation. Radiation was delivered as a single dose of 12 Gy using a 10 mm collimated beam aimed at the center of the tumor.

H1299 cancer cells = assay: Clonogenic assay of FIG. 4, normalized surviving fraction; type: cell-based, human; conditions: 20 μM GC4419, FIG. 4, control also about 1
Experimental: The effect of the pentaaza macrocyclic ring complex GC4419 in combination with inhibitors of hydrogen peroxide metabolism was tested on breast cancer cells (MB231) and non-small cell lung cancer cells (H1299) versus normal cells (HMEC normal mammary epithelial cells and HBEpC normal bronchial epithelial cells). The cells were plated and grown exponentially for 2 days. Either or both of 20 μM of the CG4419 compound and 100 μM BSO were added at time 0 of exposure, and 500 nM Auranofin (a thioredoxin reductase inhibitor) was added 48 hours after, for 15 minutes prior to a clonogenic assay.

[2] = Tuder et al. 2003; cited from earlier work
[3] = system: breast cancer cells (MB231); assay: 3-aminotriazole mediated inactivation of catalase (H2O2 flux); type: cell-based, human; conditions: 20 μM GC4419, MB231
Experimental: (§1) The effect of the pentaaza macrocyclic ring complex GC4419 in increasing levels of H2O2 in cancer cells was further tested by measuring the 3-aminotriazole mediated inactivation of catalase, using a method as described in Ahmad et al, J. Biol Chem, 280(6), 4254-4263 (2005). Briefly, head and neck cancer cells (Cal27), lung cancer cells (H1299) and breast cancer cells (MB231) were grown in 60 mm dishes, transduced with 50 MOI adCat to genetically increase catalase expression, and allowed 48 hours to recover so that the activity of catalase could increase to maximal levels. Afterwards, 50 mM AT was added for 5 minutes, which irreversibly binds to and inhibits the catalase intermediate formed in the presence of H2O2. 20 μM GC4419 was added, and cells were collected at 10 minute intervals for 60 minutes, and the inhibition of catalase was determined. A Lowry's protein assay determined the total protein concentration of individual samples. This method provides a stoichiometry of one catalase molecule being inhibited for each molecule of H2O2, thereby providing for precise measurements of changes in H2O2 flux. The results are shown in FIG. 3 (left hand side is Cal27, middle is H1299, and right hand side is MB231).

[4] = system: lung cancer cells (H1299); assay: as above; type: cell-based, human; conditions: 20 μM GC4419, H1299
Experimental: as §1

[5] = Anderson 2015; cited from earlier work
[6] = system: human lung cancer cells (H292); assay: PeroxyOrange-1 (PO-1) oxidation as a measure of steady-state H2O2; type: cell-based
Experimental: The effects on H2O2 fluxes of a pentaaza macrocyclic ring complex (GC4419) provided in combination with inhibitors of H2O2 metabolism were tested in human lung cancer cells (H292). The H292 cells were treated with 20 μM GC4419 for 3 and 24 hours, and PeroxyOrange-1 (PO-1) oxidation was monitored as a measure of steady-state H2O2. […] Also, the combination of GC4419+BSO+AT for 3 hours (B-AT 4419 3) and 24 hours (B-AT 4419 24) further increased PO-1 oxidation to 3-fold greater than a control. The PO-1 oxidation was also monitored in dosing the cells three times with 100 μM hydrogen peroxide (H2O2).

[7] = system: Subcutaneous H1299 tumors; assay: Non-small cell lung cancer tumor xenograft model with or without radiation; type: in vivo
Experimental: The effect of the pentaaza macrocyclic ring complex GC4419 was tested in vivo on non-small cell lung cancer (NSCLC) in a tumor xenograft model. Subcutaneous H1299 tumors were subjected to biologically equivalent fractionation schemes of 18 Gy×1 dose or 2 Gy×16 doses (delivered on consecutive days), 1 hour following an initial injection of 24 mg/kg GC4419. GC4419 was also administered on the next 4 consecutive days after the first injection (given, in the case of the 2 Gy fraction dose experiment, 1 hour prior to each of those 4 days' radiation treatments).

[8] = system: Breast cancer cells (MB231) and lung cancer cells (H1299); assay: Clonogenic killing in presence and absence of N-acetylcysteine (NAC); type: cell-based, human; conditions: 10 mM of NAC; 20 μM GC4419, 100 μM BSO, 500 nM Au
Experimental: Breast cancer cells (MB231) and lung cancer cells (H1299) were grown in culture to 75% confluence and treated with either 20 μM GC4419, or 100 μM BSO with 500 nM Au added after 48 hours, or all of GC4419, BSO and Au. The cancer cells were also treated with the same sets of compounds, but with the further addition of 10 mM of NAC. […] Thus, the results support that pentaaza macrocyclic ring complexes such as GC4419 combined with inhibitors of hydrogen peroxide metabolism can selectively kill cancer cells versus normal cells via oxidative stress correlated with increase H2O2 fluxes.

[9] = system: breast cancer cells (MB231); assay: Total glutathione levels, DTNB recycling spectrophotometric assay; type: cell-based, human; conditions: 50 μM or 100 μM BSO, 24 hours
Experimental: (§2) The effect of buthionine sulfoximine (BSO) on reduced glutathione (GSH) levels in breast cancer cells (MB231) and lung cancer cells (H292) was examined. The cells were plated and grown to 75% confluency, then treated with either 50 μM BSO or 100 μM BSO for another 24 hours before harvesting for analysis for total glutathione levels using a DTNB recycling spectrophotometric assay.

lung cancer cells (H292) = assay: as above; type: cell-based, human; conditions: 50 μM or 100 μM BSO, 24 hours
Experimental: as §2

[10] = 24 mg/kg daily ip bolus, 5 consecutive days
[11] = 24 mg/kg GC4419, 5 consecutive days

CC(=O)OCC1OC([S-])C(OC(C)=O)C(OC(C)=O)C1OC(C)=O.CCP(CC)CC.[Au+] (stereo not shown) [auranofin, gold(+1)cation; 3,4,5-triacetyloxy-6-(acetyloxymethyl)oxane-2-thiolate; triethylphosphanium]
normalized surviving cell fraction ([1]; 250 nM of auranofin, FIG. 6): over 0.5
cell killing as compared to a control ([1]; 250 nM, 15 minutes): significant cell killing
response of cancer cells to ionizing radiation ([1]; 15 minutes prior to first of two IR doses (2 Gy each), versus IR 4 Gy alone): significantly increases

[Cl][Mn][Cl].c1cc2nc(c1)CN[C@H]1CCCC[C@@H]1NCCN[C@H]1CCCC[C@@H]1NC2 [GC4419]
tumor growth (HN5 (HNSCC) tumors; [10]): significant growth delay
tumor volumes as compared to a control (HN5 (HNSCC) tumors; [10]): reduced tumor volumes
tumor growth, combination with radiation (HN5 (HNSCC) tumors; 24 mg/kg daily ×5 starting 1 hour prior to single dose of 12 Gy): even greater growth delays
normalized surviving cell fraction (on a log scale) (H1299 cancer cells): about 1
VEGFr inhibitor-induced pulmonary disease [2]: attenuate VEGFr inhibitor-induced pulmonary disease
steady-state levels of intracellular H2O2 flux, normalized to the control [3]: significant increases
steady-state levels of intracellular H2O2 flux, normalized to the control [4]: significant increases
oral mucositis [5]: reduce oral mucositis
increase in PO-1 oxidation as compared to the control ([6]; 20 μM GC4419, 3 hours): 1.5 fold
increase in PO-1 oxidation as compared to the control ([6]; 20 μM GC4419, 24 hours): 1.5 fold
response of NSCLC tumors to radiation ([7]; 24 mg/kg GC4419 1 hour before 18 Gy×1 or 2 Gy×16): significantly enhancing radiation induced growth delay, and survival
anti-cancer effect, cancer size as compared to the control [7, 11]: reduced cancer size
survival as compared to the control [7, 11]: improved survival

CC(=O)N[C@@H](CS)C(=O)O [NAC, N-acetylcysteine]
effect of NAC on cell killing caused by GC4419+Au and/or BSO [8]: nearly completely inhibited the cell killing

CCCCS(=N)(=O)CCC(N)C(=O)O (stereo not shown) [BSO, buthionine sulfoximine]
glutathione levels [9]: significantly decreases
glutathione levels (lung cancer cells (H292)): significantly decreases
